10 compounds from paper PMC9549282, “Transcriptome analysis of megalurothrips usitatus (Bagnall) identifies olfactory genes with ligands binding characteristics of MusiOBP1 and MusiCSP1” (Frontiers in Physiology, 2022) can be followed below.

The term Kd denotes the concentration at which binding is half-saturated. One may read the Ki as the equilibrium dissociation constant of an inhibitor or competing ligand from its target.

For one assay, the target named is T1, MusiCSP1.
T1 construct: pET32a(+) BamHI/HindIII fusion (about 31 kDa) in E. coli BL21(DE3), Ni-NTA, His-tag fusion cut off with enterokinase
Nature of the assay: fluorescent probe titration, Scatchard. The class given is binding, Megalurothrips usitatus. The following applies: excitation 337 nm; labelled compound (fluorescent probe).
In turn, `c1ccc(Nc2cccc3ccccc23)cc1` [1-NPN] gave a dissociation constant (Kd) of 8.36 µM.

In another assay the target is T1, MusiCSP1. In words: 1-NPN fluorescence displacement. The class given is binding, Megalurothrips usitatus. The following applies: 2 μM protein, 2 μM 1-NPN; ligand 2-16 μM; competitive with 1-NPN. An excerpt: 1-NPN fluorescence displacement on MusiCSP1
`C=C1CC/C=C(\C)CC[C@@H]2[C@@H]1CC2(C)C` [β-Caryophyllene] registered a Ki of 121 µM.
On the same count and under the same terms, with `O=CCCc1ccccc1` [3-Benzene propanal] the figure was 38.6 µM; with `CC(C)=CCC/C(C)=C\CO` [Nerol], 80 µM.
On the same count and under the same terms, to `CCCCCC(=O)CC` [3-Octanone] belongs 59.6 µM; to `CC(C)=CCC/C(C)=C/CO` [Geraniol], 36.5 µM; to `Cc1occc(=O)c1O` [3-hydroxy-2-Methyl-4-pvrone], 25.4 µM.
Still for that read-out and setting: to `Cc1ccccc1C` [O-Xylene] belongs 31 µM; to `CC(C)=CCCC(C)CCO` (stereo not drawn) [β-citronellol], 38.6 µM; to `COc1ccc(C=O)cc1` [P-Anisaldehyde], 42.8 µM.
